This is an account of results in patent US20220249607A1, “Method of treatment of degenerative diseases caused by membrane channel-forming peptides fragments” (Zarbio, priority 2021, published 2022).

Data set [1] is described as follows: Flow cytometric permeabilization of neutral liposomes to calcium. The note with it: phosphatidylcholine liposomes, Fluo-3, flow cytometry. The procedure: (§1) The figure is a composite of data which was presented and analyzed in detail in (Zaretsky and Zaretskaia 2020, Zaretsky and Zaretskaia 2020). Liposomes (400 nm) were made of either phosphatidylserine (A-E, negatively charged lipid) or phosphatidylcholine (F-H, neutral lipid) with added DiD and were extruded in the Ca-free buffer containing 1 mM Fluo-3. After the addition of calcium, aliquots of peptide were added. Ionomycin was used as a positive control. Fluorescence of liposomes was analyzed using a flow cytometer. Each dot at the graph represent a single liposome registered in the flow. The intensity of DiD fluorescence characterizes the amount of membrane material in the liposome, while the fluorescence of Fluo-3 depends on the intraliposomal presence of calcium. […] The liposomes inside rectangle (area R1) are permeabilized, and the number of liposomes which were counted to be within the area is shown.

Data set [2] can be described thus: Flow cytometric permeabilization of negatively charged liposomes to calcium. Particulars: for permeabilization of negatively charged liposomes to calcium: phosphatidylserine liposomes, Fluo-3, flow cytometry.
Source text: To improve the quantitative aspect of studying the permeabilization of liposomes by […], we developed a flow cytometric technique which allowed us to estimate the number of channel-forming units in the solutions of peptide (Zaretsky and Zaretskaia 2020). This number appears extremely small compared to the total amount of peptide. In model conditions, one channel is formed out of approximately 10^12 molecules of Aβ25-35. The low ratio of channels created by the peptide would not allow for the studying of channel formation using typical methods of protein biology, such as spectroscopy or NMR, for the reason that the signal of interest being too low. Even though the proportion of channels is small, when the peptide was added in micromolar concentrations, thousands of permeabilized vesicles could be observed, which makes the power of channel formation biologically relevant.
as §1
In general terms: In flow cytometry, cells or beads pass a laser one at a time.

Data set [3] concerns Aβ-induced apoptosis in the brain. The note with it: rat brain, cited from earlier work; for effect on Aβ-induced apoptosis (TUNEL) / effect on accumulation of Aβ immunoreactivity / amyloid: simultaneous i.c.v. infusion with Aβ; for effect on apoptosis by the inhibitor itself (spontaneous apoptosis): without Aβ, TUNEL.
Data set [4] concerns the target amyloid channels (Homo sapiens, UniProt P05067). Particulars: cited from earlier work.
For data set [5], the system named is lysosomes of cells loaded with Lucifer Yellow. Particulars: 20 hours incubation; Ji, Miranda et al. 2002; cited from earlier work.
For data set [6] the following is noted: cited from earlier work.
The subject of data set [7] is 15 cells derived from pancreatic islets of Langerhans. The note with it: cited from earlier work.
Data set [8] shares this test system. The note with it: cited from earlier work; for effect on beta-amyloid-induced drop in cell viability: MTT, stated for both cell lines.
For data set [9], the system named is Aβ1-42 toxicity. Particulars: cited from earlier work.
The subject of data set [10] is Aβ1-42-induced drop of cell survival. The note with it: Tizon, Ribe et al. 2010; cited from earlier work.
The mark [11] stands for this setting: study of Aksenov, Aksenova et al. 1996.

Entries after “also recorded” stand apart in the source; their conditions may differ. Read-outs that look alike come from different tables or passages of the source.

Sequence of amyloid channels (P05067 672-713 limits assumed): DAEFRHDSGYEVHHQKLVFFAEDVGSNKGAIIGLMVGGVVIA

Regarding `C[C@H](CCC(=O)O)C[C@H](C)C[C@H](C)C(=O)/C=C(\O)[C@H](C)C[C@H](C)C/C=C/[C@@H](C)[C@@H](O)[C@@H](C)[C@@H](O)C[C@@H]1CC[C@@](C)([C@H]2CC[C@@](C)([C@@H](C)O)O2)O1` [ionomycin], the “permeabilization of neutral liposomes to calcium” value in [1] is “permeabilizes thousands of liposomes”. In data set [2], the “permeabilization of negatively charged liposomes to calcium” value was “permeabilizes liposomes”.

For `CC(=O)N[C@@H](CC(C)C)C(=O)N[C@@H](CC(C)C)C(=O)N[C@H](C=O)CCCNC(=N)N` [leupeptin], in data set [3], the “effect on Aβ-induced apoptosis (TUNEL)” value was “promoted apoptosis”, the “effect on accumulation of Aβ immunoreactivity / amyloid” value is on record as “promoted” and the “effect on apoptosis by the inhibitor itself (spontaneous apoptosis)” value is recorded as “tends to increase apoptosis by itself”.

Take `NC(CO)(CO)CO` [tromethamine]: the “blockade of smaller amyloid channels” value in [4] (channels <400 pS) was “effectively blocked”. The “blockade of giant amyloid channels” value in data set [4] (super-high conductance channels >1 nS) is recorded as “less effective”.

Take Aβ1-42: full-length amyloid peptide: the “pattern of Lucifer Yellow fluorescence in cells (lysosomal permeabilization)” value in data set [5] is reported as “diffuse intracellular pattern of fluorescence”. The “permeabilization of negatively charged liposomes to calcium” value in data set [2] is given as “ineffective in the permeabilization of the membranes; also recorded: does not permeabilize liposomal membranes”.

In the case of “Aβ22-35: longer beta-amyloid fragment without positive overall charge, non-channel-forming (EDVGSNKGAIIGLM; Amyloid-beta protein 42; UniProt P05067 693-706, looked up, fragment)”, the “permeabilization of negatively charged liposomes to calcium” value in data set [2] is “does not create a noticeable number of channels; also recorded: does not permeabilize liposomes”.

In the case of “Aβ25-35: positively charged short channel-forming fragment of beta-amyloid (GSNKGAIIGLM; Amyloid-beta protein 42; UniProt P05067 696-706, looked up, fragment)”, the “percentage of channels with a conductance” value in [6] (acidic pH (pH 5.0), 20 μM peptide) is on record as “more than 30%”. The “conductance of formed channels” value in data set [6] (upper end of conductance) was “up to 1 nS”. In addition, the “permeabilization of neutral liposomes to calcium” value in data set [1] is recorded as “does not permeabilize liposomes; also recorded: not permeabilized”. In data set [2] (model conditions), the “number of peptide molecules out of which one channel is formed” value is listed as “approximately 10^12 molecules”. Moreover, the “permeabilization of negatively charged liposomes to calcium” value in [2] is listed as “creates multiple liposomes permeable to calcium”.

On to aprotinin, for which, in data set [3], the “effect on Aβ-induced apoptosis (TUNEL)” value is recorded as “prevented Aβ-induced apoptosis”, the “effect on accumulation of Aβ immunoreactivity / amyloid” value was “did not exacerbate intracellular accumulation of amyloid” and the “effect on apoptosis by the inhibitor itself (spontaneous apoptosis)” value is on record as “tends to decrease even spontaneously occurring apoptosis”.

B1: α1-anti-chymotrypsin (protein, UniProt P01011 24-423, looked up)
Alpha-1-antichymotrypsin: HPNSPLDEENLTQENQDRGTHVDLGLASANVDFAFSLYKQLVLKAPDKNVIFSPLSISTALAFLSLGAHNTTLTEILKGLKFNLTETSEAEIHQSFQHLLRTLNQSSDELQLSMGNAMFVKEQLSLLDRFTEDAKRLYGSEAFATDFQDSAAAKKLINDYVKNGTRGKITDLIKDLDSQTMMVLVNYIFFKAKWEMPFDPQDTHQSRFYLSKKKWVMVPMMSLHHLTIPYFRDEELSCTVVELKYTGNASALFILPDQDKMEEVEAMLLPETLKRWRDSLEFREIGELYLPKFSISRDYNLNDILLQLGIEEAFTSKADLSGITGARNLAVSQVVHKAVLDVFEEGTEASAATAVKITLLSALVETRTIVRFNRPFLMIIVPTDTQNIFFMSKVTNPKQA
Take B1: the “effect on amylin-induced drop in cell viability” value was “prevent amylin-induced cellular toxicity” in data set [7] (MTT, listed as anti-chymotrypsin) and “prevented” in data set [7] (MTT, listed as α1-anti-chymotrypsin). Further, the protection against amylin in [7] (MTT) is on record as below 100%. Also, the “effect of further increase of concentration on protection against amylin” value in data set [7] (above optimal dose) was “significantly decreased the protective effect”. Moreover, the “effect on beta-amyloid-induced drop in cell viability” value in data set [8] is reported as “can protect against Aβ-induced drop in cell viability”; in [8] (listed as α1-anti-chymotrypsin), “prevented”. Also, the “effect of further increase of concentration on protection against beta-amyloid” value in [8] (above optimal dose, both cell lines) was “disappearance of protection”. The “protection against beta-amyloid-induced drop in cell viability” value in [8] (in some conditions, stated for both cell lines (15 cells, cortical cultures)) was at most 100%. Also, the “effect on Aβ1-42 toxicity” value in data set [9] (setting [11]) is on record as “attenuated Aβ1-42 toxicity”. In addition, the “effect on fibril formation” value in data set [9] (setting [11]) was “without affecting fibril formation”. Also, in data set [9] (study of Ma, Brewer et al. 1996), the “effect on Aβ toxicity” value was “not effective”.

B2: cystatin C (protein, UniProt P01034 27-146, looked up)
Cystatin-C: SSPGKPPRLVGGPMDASVEEEGVRRALDFAVGEYNKASNDMYHSRALQVVRARKQIVAGVNYFLDVELGRTTCTKTQPNLDNCPFHDQPHLKRKAFCSFQIYAVPWQGTMTLSKSTCQDA
As for B2, the “effect on drop of cell survival induced by Aβ1-42” value in [10] is “prevented the drop of cell survival”.
